Activity calls are given as the source filed them. No cut-off for these calls is given here.
Columns and labels:
[1] = Inhibition of Bacillus stearothermophilus alpha-glucosidase; parameters: species or system Geobacillus stearothermophilus
[2] = Retention time of the compound by HPLC-SPE-NMR analysis; assay type: physicochemical
[3] = test system: Geobacillus stearothermophilus; assay: Inhibition of Bacillus stearothermophilus alpha-glucosidase at 10 ug/ml
[4] = Cytotoxicity against human WS1 cells; assay type: cell-based

Row | SMILES | IC50 [1] [µM] | Retention_time [2] [min] | inhibition [3] | IC50 [4] [µM]
1 | COc1cc(/C=C/C(=O)O[C@@H]2[C@@H](O)[C@H](O)[C@@H](CO)O[C@H]2c2c(O)cc3oc(-c4ccc(O)c(O)c4)cc(=O)c3c2O)cc(OC)c1O | – | 29.1 | – | –
2 | O=C(/C=C\c1ccc(O)cc1)OC[C@H]1O[C@@H](Oc2cc(O)c3c(=O)cc(-c4ccc(O)cc4)oc3c2)[C@H](O)[C@@H](O)[C@@H]1O | 10.1 | 44.9 | – | –
3 | O=c1cc(-c2ccc(O[C@@H]3O[C@H](CO)[C@@H](O)[C@H](O)[C@H]3O)c(O)c2)oc2cc(O)cc(O)c12 | – | – | inactive | –
4 | O=C(/C=C/c1ccc(O)cc1)O[C@@H]1[C@@H](O)[C@H](O)[C@@H](CO)O[C@H]1c1c(O)cc2oc(-c3ccc(O)c(O)c3)cc(=O)c2c1O | 35.7 | 29.9 | – | –
5 | O=c1cc(-c2ccc(O)c(O)c2)oc2cc(O)c([C@@H]3O[C@H](CO)[C@@H](O)[C@H](O)[C@H]3O)c(O)c12 [ISOORIENTIN] | 1530 | 14.9 | – | –
6 | O=c1cc(-c2ccc(O)c(O)c2)oc2c([C@@H]3O[C@H](CO)[C@@H](O)[C@H](O)[C@H]3O)c(O)cc(O)c12 [ORIENTIN] | – | 16.6 | – | –
7 | O=c1cc(-c2ccc(O)c(O)c2)oc2cc(O)cc(O)c12 [LUTEOLIN] | 86.1 | – | – | –
8 | O=c1cc(-c2ccc(O)cc2)oc2cc(O[C@@H]3O[C@H](CO)[C@@H](O)[C@H](O)[C@H]3O)cc(O)c12 [APIGETRIN] | – | 25.7 | inactive | –
9 | O=c1cc(-c2ccc(O)cc2)oc2cc(O)c([C@@H]3O[C@H](CO)[C@@H](O)[C@H](O)[C@H]3O)c(O)c12 [ISOVITEXIN] | 61.2 | 19.5 | – | –
10 | O=C(/C=C/c1ccccc1)OC[C@H]1O[C@@H](Oc2cc(O)c3c(=O)cc(-c4ccc(O)c(O)c4)oc3c2)[C@H](O)[C@@H](O)[C@@H]1O | – | 51.4 | – | –
11 | COc1cc(-c2cc(=O)c3c(O)cc(O)cc3o2)ccc1O [CHRYSOERIOL] | – | 51.4 | – | –
12 | O=C(/C=C/c1ccc(O)cc1)OC[C@H]1O[C@@H](Oc2cc(O)c3c(=O)cc(-c4ccc(O)cc4)oc3c2)[C@H](O)[C@@H](O)[C@@H]1O | 14.6 | 43.4 | – | 42

Continued, in another order:

Row | IC50 [1] [µM] | Retention_time [2] [min] | inhibition [3] | SMILES | IC50 [4] [µM]
13 | 0.033 | – | – | C[C@H]1O[C@H](O[C@H]2[C@H](O)[C@@H](O)[C@@H](O[C@H]3[C@H](O)[C@@H](O)C(O)O[C@@H]3CO)O[C@@H]2CO)[C@H](O)[C@@H](O)[C@@H]1N[C@H]1C=C(CO)[C@@H](O)[C@H](O)[C@H]1O (stereo not given in full) [ACARBOSE] | –
14 | 11.3 | 57.4 | – | O=C(/C=C\c1ccccc1)OC[C@H]1O[C@@H](Oc2cc(O)c3c(=O)cc(-c4ccc(O)cc4)oc3c2)[C@H](O)[C@@H](O)[C@@H]1O | –
15 | 8.8 | 41.8 | – | COc1cc(/C=C/C(=O)OC[C@H]2O[C@@H](Oc3cc(O)c4c(=O)cc(-c5ccc(O)cc5)oc4c3)[C@H](O)[C@@H](O)[C@@H]2O)ccc1O | –
16 | – | 20.7 | inactive | O=c1cc(-c2ccc(O)c(O)c2)oc2cc(O[C@@H]3O[C@H](CO)[C@@H](O)[C@H](O)[C@H]3O)cc(O)c12 [GALUTEOLIN] | –
17 | 4.3 | 36.5 | – | O=C(/C=C/c1ccc(O)cc1)O[C@@H]1[C@@H](O)[C@H](O)[C@@H](CO)O[C@H]1c1c(O)cc2oc(-c3ccc(O)cc3)cc(=O)c2c1O | –
18 | 34.6 | 50.2 | – | O=c1cc(-c2ccc(O)cc2)oc2cc(O)cc(O)c12 [APIGENIN] | –

Source: ChEMBL document CHEMBL3596150, “Acylated glucosylflavones as α-glucosidase inhibitors from Tinospora crispa leaf” (Bioorg Med Chem, 2015)
